Results as given in patent US20240228463A1, “SODIUM CHANNEL INHIBITORS AND METHODS OF DESIGNING SAME” (Genentech, Inc., priority 2021, published 2024).

Biological target: T1, hNaV1.7 (Homo sapiens, UniProt Q15858)
T1 construct: expressed in transfected cells
Assay: Patch voltage clamp electrophysiology (EP), Syncropatch 384PE, Nav1.7 in CHO cells;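 also: Nav1.7 stably expressed from cDNA in CHO cells, holding potential of −50 mV kept for the entire experiment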
Assay type: cell-based
Conditions: holding potential −50 mV, inhibition based on 7.5 min compound incubation, read-out: hNaV1.7 EP_SP

T1 sequence (Q15858 1-1977 isoform Q15858-3): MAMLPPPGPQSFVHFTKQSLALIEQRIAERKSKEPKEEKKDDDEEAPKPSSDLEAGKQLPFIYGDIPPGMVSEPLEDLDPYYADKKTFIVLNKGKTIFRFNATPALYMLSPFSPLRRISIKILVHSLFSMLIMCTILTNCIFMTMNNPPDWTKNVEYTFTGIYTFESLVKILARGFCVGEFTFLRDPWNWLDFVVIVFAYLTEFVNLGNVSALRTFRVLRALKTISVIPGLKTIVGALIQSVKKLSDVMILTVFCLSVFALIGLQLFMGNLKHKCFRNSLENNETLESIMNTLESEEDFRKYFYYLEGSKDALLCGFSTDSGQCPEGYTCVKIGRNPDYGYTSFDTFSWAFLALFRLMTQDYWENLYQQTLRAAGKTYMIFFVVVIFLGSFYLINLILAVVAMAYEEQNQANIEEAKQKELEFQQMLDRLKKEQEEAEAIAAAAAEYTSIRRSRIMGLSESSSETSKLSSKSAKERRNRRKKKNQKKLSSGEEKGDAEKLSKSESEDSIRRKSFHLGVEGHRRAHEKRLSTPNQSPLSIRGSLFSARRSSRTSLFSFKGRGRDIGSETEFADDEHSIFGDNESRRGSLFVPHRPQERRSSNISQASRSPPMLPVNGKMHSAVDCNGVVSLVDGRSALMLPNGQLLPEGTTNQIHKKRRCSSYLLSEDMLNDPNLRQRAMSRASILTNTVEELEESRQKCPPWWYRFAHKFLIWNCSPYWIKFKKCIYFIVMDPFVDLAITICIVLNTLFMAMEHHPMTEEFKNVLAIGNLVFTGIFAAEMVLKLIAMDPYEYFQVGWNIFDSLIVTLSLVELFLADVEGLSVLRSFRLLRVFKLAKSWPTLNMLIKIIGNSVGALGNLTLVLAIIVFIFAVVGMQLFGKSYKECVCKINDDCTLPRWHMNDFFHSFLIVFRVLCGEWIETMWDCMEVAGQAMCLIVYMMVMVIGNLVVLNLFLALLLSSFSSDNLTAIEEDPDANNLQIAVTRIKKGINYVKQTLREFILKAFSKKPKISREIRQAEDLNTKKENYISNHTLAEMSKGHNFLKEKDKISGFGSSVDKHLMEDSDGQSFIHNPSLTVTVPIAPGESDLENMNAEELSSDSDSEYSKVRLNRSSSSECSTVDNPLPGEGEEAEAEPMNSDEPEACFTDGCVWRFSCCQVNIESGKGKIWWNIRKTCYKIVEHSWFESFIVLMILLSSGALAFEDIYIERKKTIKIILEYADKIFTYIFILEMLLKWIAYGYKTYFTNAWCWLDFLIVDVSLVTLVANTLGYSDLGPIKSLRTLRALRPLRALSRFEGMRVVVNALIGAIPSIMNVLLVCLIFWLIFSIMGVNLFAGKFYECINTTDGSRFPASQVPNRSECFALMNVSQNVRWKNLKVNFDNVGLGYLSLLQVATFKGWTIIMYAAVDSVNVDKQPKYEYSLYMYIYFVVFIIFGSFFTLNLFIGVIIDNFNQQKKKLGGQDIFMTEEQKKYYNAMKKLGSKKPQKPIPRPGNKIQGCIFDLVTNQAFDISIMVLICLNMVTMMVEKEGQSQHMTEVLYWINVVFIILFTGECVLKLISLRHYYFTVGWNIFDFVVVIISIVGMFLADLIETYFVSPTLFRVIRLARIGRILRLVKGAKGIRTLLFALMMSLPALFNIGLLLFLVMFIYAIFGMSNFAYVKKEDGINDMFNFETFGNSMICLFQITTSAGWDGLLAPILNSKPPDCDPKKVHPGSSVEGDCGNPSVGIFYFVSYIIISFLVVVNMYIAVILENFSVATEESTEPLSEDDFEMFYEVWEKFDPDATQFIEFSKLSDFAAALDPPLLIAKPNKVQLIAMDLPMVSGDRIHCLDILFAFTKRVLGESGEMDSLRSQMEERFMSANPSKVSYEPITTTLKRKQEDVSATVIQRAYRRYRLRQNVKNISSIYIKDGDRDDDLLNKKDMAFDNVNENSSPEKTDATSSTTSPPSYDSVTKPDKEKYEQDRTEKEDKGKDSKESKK

Row | IC50 [nM] | SMILES
1 | 710 | N#Cc1ccc(S(=O)(=O)NC(=O)c2cc(Cl)c(OCC3CCCC3)cc2F)cc1C(F)(F)F [Example 280, 5-chloro-N-((4-cyano-3-(trifluoromethyl)phenyl)sulfonyl)-4-(cyclopentylmethoxy)-2-fluorobenzamide]
2 | 160 | Cn1ncnc1COc1ccc(S(=O)(=O)NC(=O)c2cc(Cl)c(OCC3CCCC3)cc2F)cc1 [Example 286, 5-chloro-4-(cyclopentylmethoxy)-2-fluoro-N-((4-((1-methyl-1H-1,2,4-triazol-5-yl)methoxy)phenyl)sulfonyl)benzamide]
